Marks after values point to notes of the source that are not given here.
Key:
[1] = system: rats with adjuvant-induced arthritis; test: Paw edema of adjuvant arthritis (hindpaw volume, hydroplethysmometer); assay type: in vivo, male, Sprague-Dawley rats; conditions: for % inhibition contralateral paw / % inhibition ipsilateral paw: paw edema on day 14, perorally day 0 to day 14, compound A and B 60 mg/kg bid, piroxicam 3 mg/kg qd, rofecoxib 1.5 mg/kg bid, n=8
Procedure: (§1) Arthritis was induced in male, Sprague-Dawley rats (115-145 g, Japan SLC Inc., Shizuoka, Japan) on Day 0 by an injection of 300 μg of M. Tuberculosis H37 RA (Difco Laboratories Inc., Detroit, Mich.) in 100 μl of liquid paraffin (Wako Pure Chemical Industries, Ltd., Osaka, Japan) into the right hind footpad (Neuroscience 78: 843-850, 1997) on Day 0.
(§2) EP4 antagonists included within Formula I as described above (compound A and B, 60 mg/kg, bid), piroxicam (Feldene®, 3 mg/kg, qd), rofecoxib (Vioxx®, 1.5 mg/kg, bid), and control vehicle were each suspended in 0.1% methylcellulose (MC) and perorally administered separately in five groups of rats from day 0 to day 14 in a volume of 1 ml per 100 g body weight.
Hindpaw volume was measured by an hydroplethysmometer (Ugo Basile, Comerio, Italy) on Day 0, immediately before adjuvant injection, and on Days 1, 4, 7, 11 and 14 after injection. Paw swelling (%) was calculated as follows (Agents and Actions 34: 63-65, 1991):
swelling (%)={Day X volume (ml)−Day 0 volume (ml)}/Day 0 volume (ml)×100.

[2] = system: rats with adjuvant-induced arthritis; test: Arthritic score in adjuvant arthritis (sum of the score for all four limbs); assay type: in vivo, male, Sprague-Dawley rats; conditions: day 14; perorally day 0 to day 14; compound A and B 60 mg/kg bid, piroxicam 3 mg/kg qd, rofecoxib 1.5 mg/kg bid; n=8
Procedure: as §1, §2
On Day 14, the arthritic score of each paw was evaluated as described below. The total arthritic score for each animal was the sum of the score for all four limbs (Agents and Actions 27: 356-358, 1989). […]

## CN1C(C(=O)Nc2ccccn2)=C(O)c2ccccc2S1(=O)=O [Piroxicam, piroxicam]
[1]
  % inhibition contralateral paw: 96.2* %
  % inhibition ipsilateral paw: 50.8** %
[2]
  % inhibition (arthritic score): 26.7** %

## CCc1nc2c(C)nc(C)cc2n1-c1ccc(CCOC(=O)NS(=O)(=O)c2ccc(C)cc2)cc1 [Example 227, 2-[4-(2-ethyl-4,6-dimethyl-1H-imidazo[4,5-c]pyridin-1-yl)phenyl]ethyl (4-methylphenyl)sulfonylcarbamate]
other
  melting point: 158 °C

## CCc1nc2c(C)nc(C)nc2n1-c1ccc(CCOC(=O)NS(=O)(=O)c2ccc(C)cc2)cc1 [Example 228, 2-[4-(8-ethyl-2,6-dimethyl-9H-purin-9-yl)phenyl]ethyl (4-methylphenyl)sulfonylcarbamate]
other
  melting point: 162 °C

## CCc1nc2cc(C(F)(F)F)c(Cl)cc2n1-c1ccc(C[C@H](C)OC(=O)NS(=O)(=O)c2ccc(C)cc2)cc1 [Example 250, (1S)-2-{4-[6-chloro-2-ethyl-5-(trifluoromethyl)-1H-benzimidazol-1-yl]phenyl}-1-methylethyl (4-methylphenyl)sulfonylcarbamate]
other
  melting point: 200.3 °C

## CCc1nc2cc(C(C)=O)ccc2n1-c1ccc(CCOC(=O)NS(=O)(=O)c2ccc(C)cc2)cc1 [Example 332, 2-[4-(5-acetyl-2-ethyl-1H-benzimidazol-1-yl)phenyl]ethyl (4-methylphenyl)sulfonylcarbamate]
other
  melting point: 188 to 190 °C

## CCc1nc2cc(C(F)(F)F)c(Cl)cc2n1-c1ccc(CCN(C(=O)O)S(=O)(=O)c2ccc(C)cn2)cc1.Cl
other
  melting point: 205.8 °C

## CS(=O)(=O)c1ccc(C2=C(c3ccccc3)C(=O)OC2)cc1 [Rofecoxib, rofecoxib]
[1]; during the entire experimental period (day 0 to day 14), versus disease group untreated with compound
  edema formation in the ipsilateral paws (result in words): weaker activity
[1]
  % inhibition contralateral paw: 25.6%
  % inhibition ipsilateral paw: 37.1* %
[2]
  % inhibition (arthritic score): 18.5** %
